In patent publication US10485868B2, “Tn vaccine composition and method for alleviating inflammation” (TAIPEI MEDICAL UNIVERSITY, priority 2017, dated 2019):

How the values were obtained:
[1] = tested on: human gingival fibroblasts (HGFs); assay: Tn expression in HGFs, immunofluorescent staining with anti-Tn antibody; format: cell-based; details: for Tn levels in HGFs, responsiveness to purified cytokine: 0, 10, 30, 100 ng/ml for 24 hours; for Tn levels in HGFs: TNF-α 30 ng/ml
Procedure: FIG. 6A. Immunohistochemical analysis of Tn antigen in inflammatory tissues (top) and normal tissues (bottom). Tn staining in atherosclerotic aorta (left; labeled Aorta), bronchitis tissue (middle; labeled Bronchi), and periodontitis tissue (right; labeled Gingiva). Brown color represents Tn antigen expression. FIG. 6B. HGFs were treated with conditioned media from U937 cells stimulated with LPS (0, 10, 30 and 100 ng/ml; 24 hours) for 24 hours and then stained with purified rabbit anti-Tn antibody (in red) and DAPI (in blue). FIG. 6C. U937 cells were treated with LPS (0, 10, 30 and 100 ng/ml) for 24 hours, the secretions of TNF-α were analyzed by ELISA. Original magnifications (100×). Scale bar, 50 μm. FIG. 6D. U937 cells were treated with LPS (0, 10, 30 and 100 ng/ml) for 24 hours, the secretions of IL-6 were analyzed by ELISA. Original magnifications (100×). Scale bar, 50 μm. FIG. 6E. U937 cells were treated with LPS (0, 10, 30 and 100 ng/ml) for 24 hours, the secretions of IL-1β were analyzed by ELISA. Original magnifications (100×). Scale bar, 50 μm.
FIGS. 7A and 7B show pro-inflammatory cytokines, TNF-α and IL-6, up-regulates Tn levels in HGFs. FIG. 7A. The effect of pro-inflammatory cytokines on Tn expression in HGFs. HGFs were treated with purified TNF-α, IL-6 and IL-1β at the concentration of 0, 10, 30, and 100 ng/ml for 24 hours and then stained with purified rabbit anti-Tn antibody (in red) and DAPI (in blue). Original magnification (100×); scale bar, 50 μm. FIG. 7B. Time course analysis of Tn expressions in HGFs after TNF-α treatment. HGFs were treated with purified TNF-α at the concentration of 30 ng/ml for 4, 8, 12, 24 and 48 hours and then stained with purified rabbit anti-Tn antibody (in red) and DAPI (in blue) (Magnifications 630×; scale bar, 50 μm). The experiments were repeated at least three times.
(§1) FIG. 9A. Effect of TNF-α and demethylation agents on the methylation level of COSMC gene in HGFs. The comparison of methylation changes is in the HGFs which were treated with or without TNF-α and demethylation agents. The UCSC genome browser illustrated the orientation and the first exon of COSMC (blue bar), GC percent (black scale bar), CpG islands (green bar) and the sequencing region of bisulfite pyrosequencing (COSMC_py02, black bar). […] FIG. 9B. HGFs were co-treated with purified TNF-α and different concentrations of 5-aza-dC (0, 1, 2 and 5 μM) for 24 hours and then immunofluorescent stained with rabbit anti-Tn antibody (in red) and DAPI (in blue). Magnification 630×; Scale bar, 50 μm.

[2] = tested on: COSMC; assay: qPCR of COSMC mRNA in HGFs; format: cell-based, human; details: 100 ng/ml, 24 hours
Procedure: (§2) FIG. 8A. Effect of TNF-α and demethylation agents (5-aza-dC) on mRNA expression of COSMC and T-synthase in HGFs. qPCR was used to analyze COSMC and T-synthase mRNA expression in HGFs upon TNF-α and 5-aza-dC treatment. The mRNA expression of COSMC and T-synthase was normalized to GAPDH and statistically analyzed. (*: p<0.05 compared with TNF-α only) Calculations of relative gene expression (normalized to GAPDH reference gene) were performed according to the ΔΔCT method. Fidelity of the PCR reaction was determined by melting temperature analysis. FIG. 8B. Western blotting was used to analyze the protein levels of Cosmc and T-synthase upon 6 and 24 hours of TNF-α treatment. FIG. 8C. and FIG. 8D. HGFs were treated with purified TNF-α for 6 or 24 hours and then immunofluorescent stained with anti-Cosmc (in red) and anti-T-synthase antibodies (in green) and DAPI (in blue). Original magnification (100×); scale bar, 50 μm.

[3] = tested on: T-synthase; assay: qPCR of T-synthase mRNA in HGFs; format: cell-based, human; details: 100 ng/ml, 24 hours
Procedure: as §2

[4] = tested on: COSMC gene; assay: Bisulfite pyrosequencing of COSMC gene promoter methylation in HGFs; format: cell-based, human
Procedure: as §1

[5] = tested on: C57BL/6NCrlBltw mice; assay: Serum anti-Tn antibody titers by ELISA after immunization; format: in vivo; details: mice immunized subcutaneously with adjuvant, versus background before immunization
Procedure: Five-week-old female C57BL/6NCrlBltw mice were subcutaneously immunized with Tn vaccine at a dose of 20 μg or carrier protein (10 μg of mFc(Cys42-Tn)Histag2) in the presence of adjuvant in 100 μl for four times at biweekly intervals and one additional immunization at one week later after the fourth immunization. Blood was withdrawn from facial vein for anti-Tn antibody titer measurement using enzyme-linked immunosorbent assay (ELISA) on days 0, 42, and 49. Four days after the last immunization, mice were exposed to room air (RA) or oxygen-enriched atmosphere (100% O2) for up to 96 hours. Oxygen exposures was carried out in a transparent 60×50×40-cm Plexiglas chamber into which oxygen was continuously delivered at 4 l/min and oxygen levels were monitored with a ProOx Model 110 monitor (NexBiOxy, Hsinchu, Taiwan) and humidity was checked daily and the value was 60-80%. We obtained four study groups as follows: carrier protein+RA (n=6), Tn vaccine+RA (n=6), carrier protein+O2 (n=6), and Tn vaccine+O2 (n=5). Mice were deeply anesthetized with an overdose of isoflurane after 96 hours O2 treatment. […] This washing procedure was repeated two more times for each animal, with the three washes being pooled, and the total volume recorded. […]
GST(Cys6-Tn) was coated on 96-well flat-bottomed plates (Falcon Labware, Lincoln Park, N.J., USA) at a concentration of 1.5 μg/ml. […] Absorbance was read at 410 nm.

[6] = tested on: NF-κB P65; assay: Immunohistochemistry of NF-κB in lung; format: in vivo, mice; details: hyperoxia group immunized with carrier protein compared with control and Tn-treated hyperoxia groups
Procedure: After a routine deparaffinization step, heat-induced epitope retrieval was performed by immersing the slides in 0.01 mol/L sodium citrate buffer (pH 6.0). To block the endogenous peroxidase activity and nonspecific antibody binding, sections were first preincubated for 1 hour at room temperature in 0.1 mol/L PBS containing 10% normal goat serum and 0.3% H2O2 before incubating for 20 hours at 4° C. with the rabbit polyclonal anti-NF-κB P65 (1:50 dilution; Abcam Inc., Cambridge, Mass., USA) as primary antibody. The sections were then treated for 1 hour at room temperature with biotinylated goat anti-rabbit IgG (1:200, Vector, Calif., USA). This was followed by reaction with the reagents from an ABC kit (Avidin-Biotin Complex, Vector, Calif., USA) according to the manufacturer's recommendations, and the reaction products were visualized by diaminobenzidine substrate kit (Vector, Calif., USA). All immunostained sections were viewed and photographed by Olympus BX 43.

interleukin-1β [IL-1β]
Tn levels in HGFs, responsiveness to purified cytokine [1]: not responsive

tumor necrosis factor-α [TNF-α]
Tn levels in HGFs, responsiveness to purified cytokine [1]: most responsive
Tn levels in HGFs ([1]; 8 to 12 hrs): Gradual increase
Tn levels in HGFs ([1]; 4 hrs): essentially unchanged
Tn levels in HGFs ([1]; after 24 hours): gradually decreased
Tn levels in HGFs ([1]; after 48 hours): markedly decreased
COSMC mRNA in HGFs [2]: significantly down-regulated
T-synthase mRNA level in HGFs [3]: did not significantly alter
methylation of four CpG sites in the promoter of the COSMC gene ([4]; TNF-α treatment of HGFs): significantly hypermethylated

Fc fragment-7 repeats of Pro-Cys-Cys-Gly-Cys-Cys-Gly-Cys-Gly-Cys-N-succinimidyl-6-maleimidocaproate [carrier protein]
serum anti-Tn antibody titers [5]: low serum Tn antibody titers
serum anti-Tn antibody titers ([5]; listed as carrier polypeptide): background serum anti-Tn antibody levels
NFκB immunoreactivity in lung [6]: more intense NFκB immunoreactivity

Nc1ncn([C@H]2C[C@H](O)[C@@H](CO)O2)c(=O)n1 [5-aza-dC, reference compound]
TNF-α-induced Tn expression ([1]; HGFs co-treated with TNF-α and 0, 1, 2, 5 μM for 24 hours): can be suppressed
TNF-α-induced COSMC gene hypermethylation ([4]; HGFs treated with TNF-α and demethylation agent): can be suppressed

interleukine-6 [IL-6]
Tn levels in HGFs, responsiveness to purified cytokine [1]: moderately responsive
